Data published in paper PMC10354759, “Preclinical assessment of IRDye800CW‐labeled gastrin‐releasing peptide receptor‐targeting peptide for near infrared‐II imaging of brain malignancies” (Bioengineering & Translational Medicine, 2023).
Where two headings read alike, the source gives them in different places.

Experiments:
[1] = tested on: glioblastoma (GL261 cells); assay: Histological colocalization of fluorescence signal and tumor (Manders' coefficients); type: in vivo, C57BL/6 mouse; settings: 120 mg/kg intraperitoneally, 4 h post-injection
Protocol: We equally analyzed the histological colocalization of the fluorescence signal and cancer cells. […] Frozen sectioning was performed after fixation of the brain specimen in Tissue‐Tek O.C.T. using a cryostat. The fixed tissue was sliced axially at 30 μm thickness and mounted on a slide for immediate fluorescence micro imaging with the BZ‐X800. Multiple slices were performed across the tumor. Subsequently, we stained some slices with H&E according to common standard procedure, and imaged them with BZ‐X800 or Vectra Polaris. […] The mouse was euthanized and prepared for section imaging at 4 h post‐injection. The 5‐ALA emission was collected with an excitation filter (545 ± 25 nm), dichromatic mirror (565 nm), and a barrier filter (605 ± 70 nm). Quantification of the colocalization of tumor on H&E staining, 5‐ALA, and NIR were performed with the JACoP plugin for ImageJ using the Manders' coefficients.[28] Values of these coefficients range from 0 to 1 and express the fraction of intensity in a channel located in pixels where there is above threshold intensity in the other color channel.

[2] = cited from earlier work; for brightness (NIR-I) higher than ICG: 100 μM
Excerpt: Near‐infrared fluorescence imaging technology is widely used for FGS due to its non‐invasive, real‐time, and multi‐dimensional monitoring characteristics. The combination of the reducing photon scattering, light absorption, and tissue autofluorescence provides a clear view deep into the body, capable of extraordinarily high SBR that are only accomplishable when moving from the NIR‐I to NIR‐II region. Because some organic dyes are relatively easy to synthesize, modifiable, and have low biological toxicity, several studies recently explored clinically approved or commercially available NIR‐I cya ...

GRPR of GL261 cell line = molecular target: T1, GRPR of GL261 cell line (Mus musculus, UniProt P21729); assay: Targeted cell imaging (uptake and RM26 blocking); type: cell-based; settings: 500 μM RM26 before 100 μM IRDye800-RM26, imaged after 1 h
T1 construct: host or cells: GL261 (stably expressing firefly luciferase)
Excerpt: Subsequently, we washed the cells with 1 × PBS 3 times and scanned then using fluorescence microscopy (BZ‐X800; KEYENCE, Japan). The NIR emission was collected with an excitation filter (775 ± 50 nm), dichromatic mirror (810 nm), and a barrier filter (845 ± 55 nm).

T1 sequence (P21729 whole entry): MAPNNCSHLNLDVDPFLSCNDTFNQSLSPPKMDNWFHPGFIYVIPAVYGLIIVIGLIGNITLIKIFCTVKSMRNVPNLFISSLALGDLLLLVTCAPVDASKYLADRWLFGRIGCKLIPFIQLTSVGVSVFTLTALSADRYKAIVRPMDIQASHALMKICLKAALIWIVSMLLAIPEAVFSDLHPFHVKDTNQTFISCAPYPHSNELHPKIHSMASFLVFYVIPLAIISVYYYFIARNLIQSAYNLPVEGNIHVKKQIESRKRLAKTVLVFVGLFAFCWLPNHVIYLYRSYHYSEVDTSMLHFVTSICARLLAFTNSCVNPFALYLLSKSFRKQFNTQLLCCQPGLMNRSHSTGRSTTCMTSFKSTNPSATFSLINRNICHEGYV

NCC(=O)CCC(=O)O [5-ALA, 5‐aminolevulinic acid]
fraction of glioblastoma on 5-ALA overlapping tumor on H&E (Manders' coefficient) [1]: 99.8%
fraction of tumor on H&E overlapping tumor on 5-ALA (Manders' coefficient) [1]: 63.8%

CC1(C)C(/C=C/C=C/C=C/C=C2\N(CCCCS(=O)(=O)O)c3ccc4ccccc4c3C2(C)C)=[N+](CCCCS(=O)(=O)[O-])c2ccc3ccccc3c21 [ICG, indocyanine green]
brightness relative to IRDye800CW ([2]; bovine blood, 0.01 mg/mL): 12.3 times
concentration with maximum fluorescence intensity ([2]; in BSA): 10000 to 20000 ng/mL

CC1(C)C(/C=C/C2=C(Oc3ccc(S(=O)(=O)O)cc3)C(=C/C=C3/N(CCCCS(=O)(=O)O)c4ccc(S(=O)(=O)[O-])cc4C3(C)C)/CCC2)=[N+](CCCCCC(=O)O)c2ccc(S(=O)(=O)O)cc21 [IRDye800]
brightness (NIR-I) higher than ICG ([2]; FBS): 1.8 fold
quantum yield (QY) ([2]; NIR-I, serum): 12%
brightness (NIR-I) higher than ICG ([2]; PBS): 3.3 fold

D‐Phe‐Gln‐Trp‐Ala‐Val‐Gly‐His‐Sta‐Leu‐NH2 [RM26]
effect of RM26 blocking on IRDye800-RM26 uptake (GRPR of GL261 cell line): reduced
